{"source": "paper PMC5290327", "about": "“SC83288 is a clinical development candidate for the treatment of severe malaria” (Nature Communications, 2017)", "test_in_all_cases": "KINOMEscan", "type_in_all_cases": "binding", "details_in_all_cases": "read-out: Remaining enzyme activity", "key": {"ABL1": {"target": "T1, ABL1 (Homo sapiens, UniProt P00519)", "T1 construct": "purchased Ambit (DiscoverX) KINOMEscan; Cerep", "in_short": "(§1)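 Three components per well: DNA-labelled kinase, bead-bound ligand, compound (SC81458, 10 μM final). Blocking buffer: SeaBlock, 1% BSA, 0.05% Tween 20, 1 mM DTT. Readout = qPCR of kinase in eluate.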"}, "BRAF(V600E)": {"target": "T2, BRAF(V600E) (Homo sapiens, UniProt P15056, V600E)", "T2 construct": "purchased Ambit (DiscoverX) KINOMEscan; Cerep", "T2 sequence (P15056 whole entry V600E)": "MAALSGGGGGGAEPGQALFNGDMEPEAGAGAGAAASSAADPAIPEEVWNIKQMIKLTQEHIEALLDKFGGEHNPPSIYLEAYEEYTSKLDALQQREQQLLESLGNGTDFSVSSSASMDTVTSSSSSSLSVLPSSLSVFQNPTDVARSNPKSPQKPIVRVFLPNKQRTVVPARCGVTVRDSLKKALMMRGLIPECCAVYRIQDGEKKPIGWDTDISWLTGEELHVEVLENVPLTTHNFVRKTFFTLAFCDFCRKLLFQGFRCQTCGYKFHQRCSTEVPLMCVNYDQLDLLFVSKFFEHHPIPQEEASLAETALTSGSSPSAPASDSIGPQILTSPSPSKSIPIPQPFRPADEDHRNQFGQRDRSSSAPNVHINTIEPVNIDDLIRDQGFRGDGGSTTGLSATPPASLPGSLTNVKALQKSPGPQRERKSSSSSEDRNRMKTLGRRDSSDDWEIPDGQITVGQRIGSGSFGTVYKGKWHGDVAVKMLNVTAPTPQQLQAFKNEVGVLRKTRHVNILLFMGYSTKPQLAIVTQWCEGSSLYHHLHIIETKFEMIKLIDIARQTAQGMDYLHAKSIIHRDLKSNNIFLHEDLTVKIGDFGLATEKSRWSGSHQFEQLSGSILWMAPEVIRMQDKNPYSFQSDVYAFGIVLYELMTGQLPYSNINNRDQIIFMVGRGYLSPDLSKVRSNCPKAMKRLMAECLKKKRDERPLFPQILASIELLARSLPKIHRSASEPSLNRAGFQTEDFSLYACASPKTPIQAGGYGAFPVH", "in_short": "as §1"}, "CAMK1d": {"target": "T3, CAMK1d (Homo sapiens, UniProt Q8IU85)", "T3 construct": "purchased Ambit (DiscoverX) KINOMEscan; Cerep", "in_short": "as §1"}, "CDK7": {"target": "T4, CDK7 (Homo sapiens, UniProt P50613)", "T4 construct": "purchased Ambit (DiscoverX) KINOMEscan; Cerep", "in_short": "as §1"}, "CDKL3": {"target": "T5, CDKL3 (Homo sapiens, UniProt Q8IVW4)", "T5 construct": "purchased Ambit (DiscoverX) KINOMEscan; Cerep", "in_short": "as §1"}, "CSNK1a1l": {"target": "T6, CSNK1a1l (Homo sapiens, UniProt Q8N752)", "T6 construct": "purchased Ambit (DiscoverX) KINOMEscan; Cerep", "in_short": "as §1"}, "DAPK1": {"target": "T7, DAPK1 (Homo sapiens, UniProt P53355)", "T7 construct": "purchased Ambit (DiscoverX) KINOMEscan; Cerep", "in_short": "as §1"}, "EGFR(L861Q)": {"target": "T8, EGFR(L861Q) (Homo sapiens, UniProt P00533, L861Q)", "T8 construct": "purchased Ambit (DiscoverX) KINOMEscan; Cerep", "T8 sequence (P00533 25-1210 L861Q)": "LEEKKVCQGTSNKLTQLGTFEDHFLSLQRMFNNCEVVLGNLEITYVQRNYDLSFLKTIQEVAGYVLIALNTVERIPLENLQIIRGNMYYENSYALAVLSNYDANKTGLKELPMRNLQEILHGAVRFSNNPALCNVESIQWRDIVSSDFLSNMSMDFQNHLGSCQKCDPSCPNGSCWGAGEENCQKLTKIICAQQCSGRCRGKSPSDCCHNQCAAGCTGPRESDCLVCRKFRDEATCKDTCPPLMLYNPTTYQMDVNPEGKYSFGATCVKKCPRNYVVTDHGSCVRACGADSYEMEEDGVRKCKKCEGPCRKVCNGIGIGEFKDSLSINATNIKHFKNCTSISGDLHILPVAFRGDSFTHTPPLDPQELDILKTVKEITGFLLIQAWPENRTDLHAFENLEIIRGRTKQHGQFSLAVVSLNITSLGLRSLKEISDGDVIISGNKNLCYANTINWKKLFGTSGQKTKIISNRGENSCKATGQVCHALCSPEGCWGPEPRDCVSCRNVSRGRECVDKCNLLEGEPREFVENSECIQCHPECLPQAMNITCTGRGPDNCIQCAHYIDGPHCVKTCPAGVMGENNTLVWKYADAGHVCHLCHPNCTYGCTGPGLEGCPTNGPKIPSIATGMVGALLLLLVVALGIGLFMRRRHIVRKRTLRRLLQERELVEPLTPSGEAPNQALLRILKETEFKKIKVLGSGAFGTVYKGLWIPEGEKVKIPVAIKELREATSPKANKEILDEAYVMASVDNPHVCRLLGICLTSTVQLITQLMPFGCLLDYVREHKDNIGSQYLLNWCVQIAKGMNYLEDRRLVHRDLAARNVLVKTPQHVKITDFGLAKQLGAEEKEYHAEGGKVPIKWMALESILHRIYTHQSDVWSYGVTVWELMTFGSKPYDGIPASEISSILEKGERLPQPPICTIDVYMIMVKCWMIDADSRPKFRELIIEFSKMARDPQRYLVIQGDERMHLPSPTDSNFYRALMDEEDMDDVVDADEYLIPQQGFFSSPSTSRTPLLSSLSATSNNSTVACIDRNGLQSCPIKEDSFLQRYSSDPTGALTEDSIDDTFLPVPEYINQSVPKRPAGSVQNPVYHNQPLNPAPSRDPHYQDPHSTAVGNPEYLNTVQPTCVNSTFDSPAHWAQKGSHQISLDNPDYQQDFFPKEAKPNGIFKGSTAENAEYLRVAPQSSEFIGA", "in_short": "as §1"}, "EGFR(S752-I759del)": {"target": "T9, EGFR(S752-I759del) (Homo sapiens, UniProt P00533, DEL752-759)", "T9 construct": "purchased Ambit (DiscoverX) KINOMEscan; Cerep", "T9 sequence (P00533 with tags, fused parts or gaps DEL752-759 limits assumed)": "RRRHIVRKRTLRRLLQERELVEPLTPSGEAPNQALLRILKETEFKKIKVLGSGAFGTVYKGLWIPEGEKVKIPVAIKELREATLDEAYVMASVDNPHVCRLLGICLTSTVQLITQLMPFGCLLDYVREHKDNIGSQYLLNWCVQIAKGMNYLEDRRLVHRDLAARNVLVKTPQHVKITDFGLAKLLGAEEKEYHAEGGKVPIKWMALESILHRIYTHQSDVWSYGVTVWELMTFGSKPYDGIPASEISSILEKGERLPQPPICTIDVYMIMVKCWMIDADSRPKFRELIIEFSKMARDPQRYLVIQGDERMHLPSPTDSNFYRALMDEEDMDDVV", "in_short": "as §1"}, "EPHA6": {"target": "T10, EPHA6 (Homo sapiens, UniProt Q9UF33)", "T10 construct": "purchased Ambit (DiscoverX) KINOMEscan; Cerep", "in_short": "as §1"}, "EPHA8": {"target": "T11, EPHA8 (Homo sapiens, UniProt P29322)", "T11 construct": "purchased Ambit (DiscoverX) KINOMEscan; Cerep", "T11 sequence (P29322 28-1005)": "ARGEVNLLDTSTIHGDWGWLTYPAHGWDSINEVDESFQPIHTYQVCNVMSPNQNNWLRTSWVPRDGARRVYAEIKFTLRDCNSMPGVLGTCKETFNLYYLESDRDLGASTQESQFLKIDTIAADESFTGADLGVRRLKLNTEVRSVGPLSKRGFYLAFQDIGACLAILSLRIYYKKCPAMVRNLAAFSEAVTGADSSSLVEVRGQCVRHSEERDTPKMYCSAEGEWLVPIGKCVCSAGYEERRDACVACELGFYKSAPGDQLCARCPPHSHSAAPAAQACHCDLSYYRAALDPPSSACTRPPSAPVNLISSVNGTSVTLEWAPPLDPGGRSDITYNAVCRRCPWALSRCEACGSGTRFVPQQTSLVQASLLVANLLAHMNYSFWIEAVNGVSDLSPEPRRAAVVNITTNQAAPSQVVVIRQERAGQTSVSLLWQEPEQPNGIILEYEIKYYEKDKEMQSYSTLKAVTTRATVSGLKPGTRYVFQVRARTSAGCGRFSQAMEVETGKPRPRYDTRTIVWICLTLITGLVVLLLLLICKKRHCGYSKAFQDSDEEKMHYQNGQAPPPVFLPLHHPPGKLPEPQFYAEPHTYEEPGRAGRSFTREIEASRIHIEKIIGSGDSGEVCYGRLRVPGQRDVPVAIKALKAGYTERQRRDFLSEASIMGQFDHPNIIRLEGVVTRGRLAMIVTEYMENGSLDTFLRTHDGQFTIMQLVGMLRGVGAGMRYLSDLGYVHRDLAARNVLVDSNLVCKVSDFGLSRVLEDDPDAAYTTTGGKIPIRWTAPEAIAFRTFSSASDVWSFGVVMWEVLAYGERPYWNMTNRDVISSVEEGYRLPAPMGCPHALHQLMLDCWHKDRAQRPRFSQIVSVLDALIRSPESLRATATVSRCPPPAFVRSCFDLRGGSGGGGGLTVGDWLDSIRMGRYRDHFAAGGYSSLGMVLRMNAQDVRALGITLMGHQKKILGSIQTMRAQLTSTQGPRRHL", "in_short": "as §1"}, "FAK": {"target": "T12, FAK (Homo sapiens, UniProt Q05397)", "T12 construct": "purchased Ambit (DiscoverX) KINOMEscan; Cerep", "in_short": "as §1"}, "FYN": {"target": "T13, FYN (Homo sapiens, UniProt P06241)", "T13 construct": "purchased Ambit (DiscoverX) KINOMEscan; Cerep", "in_short": "as §1"}, "GCN2(kin.Dom.2, S808G)": {"target": "T14, GCN2(kin.Dom.2, S808G) (Homo sapiens, UniProt Q9P2K8, S808G)", "T14 construct": "GCN2(kin.Dom.2, S808G); purchased Ambit (DiscoverX) KINOMEscan; Cerep", "in_short": "as §1"}, "[1]": {"target": "T15, JAK1(JH1domain-catalytic) (Homo sapiens, UniProt P23458)", "T15 construct": "JAK1(JH1domain-catalytic); purchased Ambit (DiscoverX) KINOMEscan; Cerep", "T15 sequence (P23458 875-1154 limits assumed)": "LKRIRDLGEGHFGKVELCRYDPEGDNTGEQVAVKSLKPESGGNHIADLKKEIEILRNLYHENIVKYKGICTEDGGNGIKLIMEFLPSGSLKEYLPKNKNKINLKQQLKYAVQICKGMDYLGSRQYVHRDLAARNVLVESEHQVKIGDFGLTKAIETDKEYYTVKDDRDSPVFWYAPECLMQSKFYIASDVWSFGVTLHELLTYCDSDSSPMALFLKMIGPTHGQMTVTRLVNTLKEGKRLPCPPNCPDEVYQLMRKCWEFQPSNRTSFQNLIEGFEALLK", "in_short": "as §1"}, "KIT(V559D, V654A)": {"target": "T16, KIT(V559D, V654A) (Homo sapiens, UniProt P10721, V559D/V654A)", "T16 construct": "purchased Ambit (DiscoverX) KINOMEscan; Cerep", "T16 sequence (P10721 26-976 V559D/V654A)": "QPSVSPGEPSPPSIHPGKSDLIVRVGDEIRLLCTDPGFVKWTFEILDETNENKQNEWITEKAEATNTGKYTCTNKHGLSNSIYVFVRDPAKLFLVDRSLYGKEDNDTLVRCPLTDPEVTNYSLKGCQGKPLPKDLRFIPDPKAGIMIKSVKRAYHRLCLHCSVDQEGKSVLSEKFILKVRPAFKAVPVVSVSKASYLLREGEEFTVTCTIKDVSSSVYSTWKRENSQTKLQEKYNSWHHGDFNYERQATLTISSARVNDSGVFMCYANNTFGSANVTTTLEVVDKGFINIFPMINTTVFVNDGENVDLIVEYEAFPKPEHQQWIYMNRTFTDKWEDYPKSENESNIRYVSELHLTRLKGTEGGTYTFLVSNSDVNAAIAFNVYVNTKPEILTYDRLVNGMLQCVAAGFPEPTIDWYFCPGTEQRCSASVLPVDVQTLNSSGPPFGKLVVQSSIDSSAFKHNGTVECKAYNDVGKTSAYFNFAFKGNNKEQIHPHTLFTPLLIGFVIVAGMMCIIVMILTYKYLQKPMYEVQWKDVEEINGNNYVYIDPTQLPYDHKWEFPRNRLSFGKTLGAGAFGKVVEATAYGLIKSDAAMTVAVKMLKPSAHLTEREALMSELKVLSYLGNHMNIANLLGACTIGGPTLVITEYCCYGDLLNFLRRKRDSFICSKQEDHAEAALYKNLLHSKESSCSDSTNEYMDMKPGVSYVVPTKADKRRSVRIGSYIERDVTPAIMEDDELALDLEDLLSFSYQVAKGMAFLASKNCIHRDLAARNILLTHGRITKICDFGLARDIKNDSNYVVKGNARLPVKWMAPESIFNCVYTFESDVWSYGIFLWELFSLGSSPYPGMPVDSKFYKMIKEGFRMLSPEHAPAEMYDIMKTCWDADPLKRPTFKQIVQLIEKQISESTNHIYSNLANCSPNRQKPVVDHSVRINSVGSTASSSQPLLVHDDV", "in_short": "as §1"}, "LOK": {"target": "T17, LOK (Homo sapiens, UniProt O94804)", "T17 construct": "purchased Ambit (DiscoverX) KINOMEscan; Cerep", "in_short": "as §1"}, "MAPKAPK5": {"target": "T18, MAPKAPK5 (Homo sapiens, UniProt Q8IW41)", "T18 construct": "purchased Ambit (DiscoverX) KINOMEscan; Cerep", "in_short": "as §1"}, "MELK": {"target": "T19, MELK (Homo sapiens, UniProt Q14680)", "T19 construct": "purchased Ambit (DiscoverX) KINOMEscan; Cerep", "in_short": "as §1"}, "MUSK": {"target": "T20, MUSK (Homo sapiens, UniProt O15146)", "T20 construct": "purchased Ambit (DiscoverX) KINOMEscan; Cerep", "in_short": "as §1"}, "PIM3": {"target": "T21, PIM3 (Homo sapiens, UniProt Q86V86)", "T21 construct": "purchased Ambit (DiscoverX) KINOMEscan; Cerep", "in_short": "as §1"}, "PLK1": {"target": "T22, PLK1 (Homo sapiens, UniProt P53350)", "T22 construct": "purchased Ambit (DiscoverX) KINOMEscan; Cerep", "in_short": "as §1"}, "RET(M918T)": {"target": "T23, RET(M918T) (Homo sapiens, UniProt P07949, M918T)", "T23 construct": "purchased Ambit (DiscoverX) KINOMEscan; Cerep", "in_short": "as §1"}, "[2]": {"target": "T24, RPS6KA2(Kin.Dom.2-C-term) (Homo sapiens, UniProt Q15349)", "T24 construct": "RPS6KA2(Kin.Dom.2-C-term); purchased Ambit (DiscoverX) KINOMEscan; Cerep", "T24 sequence (Q15349 415-672 limits assumed)": "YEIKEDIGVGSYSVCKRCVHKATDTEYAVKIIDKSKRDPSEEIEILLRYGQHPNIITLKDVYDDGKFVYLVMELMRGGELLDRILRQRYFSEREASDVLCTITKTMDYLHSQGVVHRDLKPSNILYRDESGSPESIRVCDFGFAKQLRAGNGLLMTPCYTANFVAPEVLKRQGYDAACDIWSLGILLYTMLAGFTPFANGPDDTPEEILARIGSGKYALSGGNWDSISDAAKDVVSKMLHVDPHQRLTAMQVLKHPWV", "in_short": "as §1"}, "STK33": {"target": "T25, STK33 (Homo sapiens, UniProt Q9BYT3)", "T25 construct": "purchased Ambit (DiscoverX) KINOMEscan; Cerep", "in_short": "as §1"}, "TAOK1": {"target": "T26, TAOK1 (Homo sapiens, UniProt Q7L7X3)", "T26 construct": "purchased Ambit (DiscoverX) KINOMEscan; Cerep", "in_short": "as §1"}, "TNIK": {"target": "T27, TNIK (Homo sapiens, UniProt Q9UKE5)", "T27 construct": "purchased Ambit (DiscoverX) KINOMEscan; Cerep", "in_short": "as §1"}, "TRKa": {"target": "T28, TRKa (Homo sapiens, UniProt P04629)", "T28 construct": "purchased Ambit (DiscoverX) KINOMEscan; Cerep", "in_short": "as §1"}, "WEE1": {"target": "T29, WEE1 (Homo sapiens, UniProt P30291)", "T29 construct": "purchased Ambit (DiscoverX) KINOMEscan; Cerep", "in_short": "as §1"}, "YES": {"target": "T30, YES (Homo sapiens, UniProt P07947)", "T30 construct": "purchased Ambit (DiscoverX) KINOMEscan; Cerep", "in_short": "as §1"}, "YSK1": {"target": "T31, YSK1 (Homo sapiens, UniProt O00506)", "T31 construct": "purchased Ambit (DiscoverX) KINOMEscan; Cerep", "in_short": "as §1"}}, "data": [{"compound": "CCCCN1CCN(C(=N)c2cccc(NC(=O)Nc3ccc(S(=O)(=O)NCc4ccc(S(N)(=O)=O)cc4)cc3)c2)CC1", "note": "[SC81458, 4-(3-(3-((4-butylpiperazin-1-yl)(imino)methyl)phenyl)ureido)-N-(4-sulfamoylbenzyl) benzenesulfonamide]", "values": [{"measurement": "remaining binding at 10 µM", "setting": "ABL1", "value": 100, "unit": "%"}, {"measurement": "remaining binding at 10 µM", "setting": "BRAF(V600E)", "value": 100, "unit": "%"}, {"measurement": "remaining binding at 10 µM", "setting": "CAMK1d", "value": 91, "unit": "%"}, {"measurement": "remaining binding at 10 µM", "setting": "CDK7", "value": 100, "unit": "%"}, {"measurement": "remaining binding at 10 µM", "setting": "CDKL3", "value": 98, "unit": "%"}, {"measurement": "remaining binding at 10 µM", "setting": "CSNK1a1l", "value": 100, "unit": "%"}, {"measurement": "remaining binding at 10 µM", "setting": "DAPK1", "value": 100, "unit": "%"}, {"measurement": "remaining binding at 10 µM", "setting": "EGFR(L861Q)", "value": 91, "unit": "%"}, {"measurement": "remaining binding at 10 µM", "setting": "EGFR(S752-I759del)", "value": 99, "unit": "%"}, {"measurement": "remaining binding at 10 µM", "setting": "EPHA6", "value": 92, "unit": "%"}, {"measurement": "remaining binding at 10 µM", "setting": "EPHA8", "value": 83, "unit": "%"}, {"measurement": "remaining binding at 10 µM", "setting": "FAK", "value": 100, "unit": "%"}, {"measurement": "remaining binding at 10 µM", "setting": "FYN", "value": 100, "unit": "%"}, {"measurement": "remaining binding at 10 µM", "setting": "GCN2(kin.Dom.2, S808G)", "value": 100, "unit": "%"}, {"measurement": "remaining binding at 10 µM", "setting": "[1]", "value": 87, "unit": "%"}, {"measurement": "remaining binding at 10 µM", "setting": "KIT(V559D, V654A)", "value": 100, "unit": "%"}, {"measurement": "remaining binding at 10 µM", "setting": "LOK", "value": 100, "unit": "%"}, {"measurement": "remaining binding at 10 µM", "setting": "MAPKAPK5", "value": 91, "unit": "%"}, {"measurement": "remaining binding at 10 µM", "setting": "MELK", "value": 100, "unit": "%"}, {"measurement": "remaining binding at 10 µM", "setting": "MUSK", "value": 95, "unit": "%"}, {"measurement": "remaining binding at 10 µM", "setting": "PIM3", "value": 100, "unit": "%"}, {"measurement": "remaining binding at 10 µM", "setting": "PLK1", "value": 96, "unit": "%"}, {"measurement": "remaining binding at 10 µM", "setting": "RET(M918T)", "value": 100, "unit": "%"}, {"measurement": "remaining binding at 10 µM", "setting": "[2]", "value": 100, "unit": "%"}, {"measurement": "remaining binding at 10 µM", "setting": "STK33", "value": 100, "unit": "%"}, {"measurement": "remaining binding at 10 µM", "setting": "TAOK1", "value": 100, "unit": "%"}, {"measurement": "remaining binding at 10 µM", "setting": "TNIK", "value": 100, "unit": "%"}, {"measurement": "remaining binding at 10 µM", "setting": "TRKa", "value": 100, "unit": "%"}, {"measurement": "remaining binding at 10 µM", "setting": "WEE1", "value": 100, "unit": "%"}, {"measurement": "remaining binding at 10 µM", "setting": "YES", "value": 97, "unit": "%"}, {"measurement": "remaining binding at 10 µM", "setting": "YSK1", "value": 76, "unit": "%"}]}]}
